Data: patent publication US8742110B2, “Spiroxazolidinone compounds” (Merck Sharp & Dohme Corp., priority 2010, dated 2014)
Where a name gives a salt, the structure may show the parent alone.

Target: SSTR5 (Homo sapiens (Human), UniProt P35346)
Experiment: SSTR5 binding assay
Conditions: CHO-K1 membranes expressing cloned human SSTR5
Summary of the method: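 Competition binding on membranes from CHO-K1 cells stably expressing cloned human receptor, using radiolabeled somatostatin in 50 mM Tris-HCl pH 7.8 with EGTA, MgCl2 and protease inhibitors. Unlabeled compounds tested from 0.01 nM to 10,000 nM.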

Chain of SSTR5 (P35346 whole entry): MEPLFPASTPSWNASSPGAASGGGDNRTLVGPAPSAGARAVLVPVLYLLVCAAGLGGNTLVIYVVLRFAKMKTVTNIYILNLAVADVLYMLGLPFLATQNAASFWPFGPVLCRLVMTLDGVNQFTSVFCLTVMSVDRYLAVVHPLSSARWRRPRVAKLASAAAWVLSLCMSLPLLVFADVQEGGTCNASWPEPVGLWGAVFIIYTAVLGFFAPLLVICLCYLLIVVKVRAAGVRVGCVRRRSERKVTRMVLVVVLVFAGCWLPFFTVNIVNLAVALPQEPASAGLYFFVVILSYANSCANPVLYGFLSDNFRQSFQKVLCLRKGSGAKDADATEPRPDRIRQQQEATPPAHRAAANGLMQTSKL

IC50 [nM]	SMILES
1.13	Cc1cc(-c2cc(F)c(F)cc2F)c(CN2CCC3(CC2)CN(c2ccc(C(=O)O)cc2)C(=O)O3)cc1Cl [Example 4-24, 4-{8-[(4-Chloro-2′,4′,5′-trifluoro-5-methylbiphenyl-2-yl)methyl]-2-oxo-1-oxa-3,8-diazaspiro[4.5]dec-3-yl}benzoic acid, TFA salt]
1.31	Cc1cc(-c2ccc(F)nc2)c(CN2CCC3(CC2)CN(c2ccc(C(=O)O)cc2)C(=O)O3)cc1Cl [Example 4-25, 4-{8-[5-Chloro-2-(6-fluoropyridin-3-yl)-4-methylbenzyl]-2-oxo-1-oxa-3,8-diazaspiro[4.5]dec-3-yl}benzoic acid, TFA salt]
9.35	Cc1cc(-c2ccc(C(F)(F)F)nc2)c(CN2CCC3(CC2)CN(c2ccc(C(=O)O)cc2)C(=O)O3)cc1Cl [Example 4-26, 4-(8-{5-Chloro-4-methyl-2-[6-(trifluoromethyl)pyridin-3-yl]benzyl}-2-oxo-1-oxa-3,8-diazaspiro[4.5]dec-3-yl)benzoic acid, TFA salt]
1.5	CCOc1ccc(-c2nccs2)c(CN2CCC3(CC2)CN(c2ccc(C(=O)O)cc2)C(=O)O3)c1 [Example 4-27, 4-{8-[5-Ethoxy-2-(1,3-thiazol-2-yl)benzyl]-2-oxo-1-oxa-3,8-diazaspiro[4.5]dec-3-yl}benzoic acid, TFA salt]
0.395	CCOc1cc(CN2CCC3(CC2)CN(c2ccc(C(=O)O)cc2)C(=O)O3)c(-n2cc(C)cn2)cc1C [Example 4-28, 4-{8-[5-Ethoxy-4-methyl-2-(4-methyl-1H-pyrazol-1-yl)benzyl]-2-oxo-1-oxa-3,8-diazaspiro[4.5]dec-3-yl}benzoic acid, TFA salt]
2.38	Cc1cc(CN2CCC3(CC2)CN(c2ccc(C(=O)O)cc2)C(=O)O3)cc2c1OCC2(C)C [Example 5-1, 4-{2-Oxo-8-[(3,3,7-trimethyl-2,3-dihydro-1-benzofuran-5-yl)methyl]-1-oxa-3,8-diazaspiro[4.5]dec-3-yl}benzoic acid, TFA salt]
0.704	CCOc1cc(CN2CCC3(CC2)CN(c2ccc(C(=O)O)cc2)C(=O)O3)cc2c(OC)cccc12 [Example 5-2, 4-{8-[(4-Ethoxy-8-methoxynaphthalen-2-yl)methyl]-2-oxo-1-oxa-3,8-diazaspiro[4.5]dec-3-yl}benzoic acid, TFA salt]
0.98	CCOc1cc(CN2CCC3(CC2)CN(c2ccc(C(=O)O)cc2)C(=O)O3)cc2c(OCC)cccc12 [Example 5-3, 4-{8-[(4,8-Diethoxynaphthalen-2-yl)methyl]-2-oxo-1-oxa-3,8-diazaspiro[4.5]dec-3-yl}benzoic acid, TFA salt]
65.2	CCOc1cc(C)nc2c(OCC)cc(CN3CCC4(CC3)CN(c3ccc(C(=O)O)cc3)C(=O)O4)cc12 [Example 5-4, 4-{8-[(4,8-Diethoxy-2-methylquinolin-6-yl)methyl]-2-oxo-1-oxa-3,8-diazaspiro[4.5]dec-3-yl}benzoic acid, TFA salt]
0.65	CCOc1cc(CN2CCC3(CC2)CN(c2ccc(C(=O)O)cc2)C(=O)O3)cc2c(OC)cc(Cl)cc12 [Example 5-5, 4-{8-[(6-Chloro-4-ethoxy-8-methoxynaphthalen-2-yl)methyl]-2-oxo-1-oxa-3,8-diazaspiro[4.5]dec-3-yl}benzoic acid, TFA salt]
0.172	COc1cc(CN2CCC3(CC2)CN(c2ccc(C(=O)O)cc2)C(=O)O3)cc2c(OC)cccc12 [Example 5-6, 4-{8-[(4,8-Dimethoxynaphthalen-2-yl)methyl]-2-oxo-1-oxa-3,8-diazaspiro[4.5]dec-3-yl}benzoic acid, TFA salt]
0.233	CCOc1cc(CN2CCC3(CC2)CN(c2ccc(C(=O)O)cc2)C(=O)O3)cc2c(OC)ccc(Cl)c12 [Example 5-7, 4-{8-[(5-Chloro-4-ethoxy-8-methoxynaphthalen-2-yl)methyl]-2-oxo-1-oxa-3,8-diazaspiro[4.5]dec-3-yl}benzoic acid, TFA salt]
0.424	CCOc1cc(CN2CCC3(CC2)CN(c2ccc(C(=O)O)cc2)C(=O)O3)cc2cnc(C(F)(F)F)cc12 [Example 5-8, 4-(8-{[5-Ethoxy-3-(trifluoromethyl)isoquinolin-7-yl]methyl}-2-oxo-1-oxa-3,8-diazaspiro[4.5]dec-3-yl)benzoic acid, TFA salt]
11.3	CCOc1cc(CN2CCC3(CC2)CN(c2ccc(C(=O)O)cc2)C(=O)O3)cc2ccc(C(F)(F)F)nc12 [Example 5-9, 4-(8-{[8-Ethoxy-2-(trifluoromethyl)quinolin-6-yl]methyl}-2-oxo-1-oxa-3,8-diazaspiro[4.5]dec-3-yl)benzoic acid, TFA salt]
14	CC1(C)CC(C)(C)c2cc(CN3CCC4(CC3)CN(c3ccc(C(=O)O)cc3)C(=O)O4)ccc2O1 [Example 5-11, 4-{2-Oxo-8-[(2,2,4,4-tetramethyl-3,4-dihydro-2H-chromen-6-yl)methyl]-1-oxa-3,8-diazaspiro[4.5]dec-3-yl}benzoic acid, TFA salt]
29.4	CC1(C)CCc2cc(CN3CCC4(CC3)CN(c3ccc(C(=O)O)cc3)C(=O)O4)ccc2O1 [Example 5-12, 4-{2-Oxo-8-[(2,2-dimethyl-3,4-dihydro-2H-chromen-6-yl)methyl]-1-oxa-3,8-diazaspiro[4.5]dec-3-yl}benzoic acid, TFA salt]
0.317	Cc1cc(CN2CCC3(CC2)CN(c2ccc(C(=O)O)cc2)C(=O)O3)cc2c1OCCC2(C)C [Example 5-13, 4-{2-Oxo-8-[(4,4,8-trimethyl-3,4-dihydro-2H-chromen-6-yl)methyl]-1-oxa-3,8-diazaspiro[4.5]dec-3-yl}benzoic acid, TFA salt]
3.62	CC1(C)CCOc2c(F)cc(CN3CCC4(CC3)CN(c3ccc(C(=O)O)cc3)C(=O)O4)cc21 [Example 5-14, 4-{8-[(8-Fluoro-4,4-dimethyl-3,4-dihydro-2H-chromen-6-yl)methyl]-2-oxo-1-oxa-3,8-diazaspiro[4.5]dec-3-yl}benzoic acid, TFA salt]
1.25	CC1(C)CCOc2c(Cl)cc(CN3CCC4(CC3)CN(c3ccc(C(=O)O)cc3)C(=O)O4)cc21 [Example 5-15, 4-{8-[(8-Chloro-4,4-dimethyl-3,4-dihydro-2H-chromen-6-yl)methyl]-2-oxo-1-oxa-3,8-diazaspiro[4.5]dec-3-yl}benzoic acid, TFA salt]
1.81	Cc1cc(CN2CCC3(CC2)CN(c2ccc(C(=O)O)cc2)C(=O)O3)cc2c1OCCC2C (stereo not shown) [Example 5-16, 4-{8-[(4,8-Dimethyl-3,4-dihydro-2H-chromen-6-yl)methyl]-2-oxo-1-oxa-3,8-diazaspiro[4.5]dec-3-yl}benzoic acid, TFA salt]
210	O=C(O)c1ccc(N2CC3(CCN(Cc4ccc5c(c4)OCO5)CC3)OC2=O)cc1 [Example 5-17, 4-{8-[(1,3-Benzodioxol-5-yl)methyl]-2-oxo-1-oxa-3,8-diazaspiro[4.5]dec-3-yl}benzoic acid, TFA salt]
45.3	CC1(C)Cc2cc(CN3CCC4(CC3)CN(c3ccc(C(=O)O)cc3)C(=O)O4)ccc2O1 [Example 5-18, 4-{8-[(2,2-Dimethyl-2,3-dihydro-1-benzofuran-5-yl)methyl]-2-oxo-1-oxa-3,8-diazaspiro[4.5]dec-3-yl}benzoic acid, TFA salt]
1170	O=C(O)c1ccc(N2CC3(CCN(Cc4n[nH]c5ccc(F)cc45)CC3)OC2=O)cc1 [Example 6-1, 4-{8-[(5-Fluoro-1H-indazol-3-yl)methyl]-2-oxo-1-oxa-3,8-diazaspiro[4.5]dec-3-yl}benzoic acid, TFA salt]
1740	COc1ccc2c(CN3CCC4(CC3)CN(c3ccc(C(=O)O)cc3)C(=O)O4)n[nH]c2c1 [Example 6-2, 4-{8-[(6-Methoxy-1H-indazol-3-yl)methyl]-2-oxo-1-oxa-3,8-diazaspiro[4.5]dec-3-yl}benzoic acid, TFA salt]
98.7	CCCCn1nc(CN2CCC3(CC2)CN(c2ccc(C(=O)O)cc2)C(=O)O3)c2cc(F)ccc21 [Example 6-4, 4-{8-[(1-Butyl-5-fluoro-1H-indazol-3-yl)methyl]-2-oxo-1-oxa-3,8-diazaspiro[4.5]dec-3-yl}benzoic acid, TFA salt]
149	CC(C)n1nc(CN2CCC3(CC2)CN(c2ccc(C(=O)O)cc2)C(=O)O3)c2cc(F)ccc21 [Example 6-5, 4-(8-{[5-Fluoro-1-(propan-2-yl)-1H-indazol-3-yl]methyl}-2-oxo-1-oxa-3,8-diazaspiro[4.5]dec-3-yl)benzoic acid, TFA salt]
68.1	COc1ccc2c(CN3CCC4(CC3)CN(c3ccc(C(=O)O)cc3)C(=O)O4)nn(C(C)C)c2c1 [Example 6-6, 4-(8-{[6-Methoxy-1-(propan-2-yl)-1H-indazol-3-yl]methyl}-2-oxo-1-oxa-3,8-diazaspiro[4.5]dec-3-yl)benzoic acid, TFA salt]
1200	CCCn1nc(CN2CCC3(CC2)CN(c2ccc(C(=O)O)cc2)C(=O)O3)c2ccc(C#N)cc21 [Example 6-7, 4-{8-[(6-Cyano-1-propyl-1H-indazol-3-yl)methyl]-2-oxo-1-oxa-3,8-diazaspiro[4.5]dec-3-yl}benzoic acid, TFA salt]
1200	CC(C)n1nc(CN2CCC3(CC2)CN(c2ccc(C(=O)O)cc2)C(=O)O3)c2ccc(C(N)=O)cc21 [Example 6-8, 4-(8-{[6-Carbamoyl-1-(propan-2-yl)-1H-indazol-3-yl]methyl}-2-oxo-1-oxa-3,8-diazaspiro[4.5]dec-3-yl)benzoic acid, TFA salt]
121	CC(C)n1nc(CN2CCC3(CC2)CN(c2ccc(C(=O)O)cc2)C(=O)O3)c2ccc(C#N)cc21 [Example 6-9, 4-(8-{[6-Cyano-1-(propan-2-yl)-1H-indazol-3-yl]methyl}-2-oxo-1-oxa-3,8-diazaspiro[4.5]dec-3-yl)benzoic acid, TFA salt]

SMILES	IC50 [nM]
CCCn1nc(CN2CCC3(CC2)CN(c2ccc(C(=O)O)cc2)C(=O)O3)c2ccc(OC)cc21 [Example 6-3, 4-{8-[(6-Methoxy-1-propyl-1H-indazol-3-yl)methyl]-2-oxo-1-oxa-3,8-diazaspiro[4.5]dec-3-yl}benzoic acid, TFA salt]	156
